{"source": "patent US20160175802A1", "about": "“METHOD FOR MAKING A GAS FROM AN AQUEOUS FLUID,PRODUCT OF THE METHOD, AND APPARATUS THERFOR” (priority 2007, published 2016)", "key": {"goldfish": {"test_system": "goldfish", "experiment": "Fish growth in home aquariums", "format": "in vivo", "details": "SG Gas bubbled into aquarium for thirty days vs air", "description": "Fish Growth: Two home aquariums were used to hold two respective groups of goldfish. SG Gas was bubbled into one aquarium and the second with air for a period of thirty days."}, "pH test": {"experiment": "pH test", "format": "physicochemical", "details": "distilled water infused with SG Gas (distilled water pH 6.8)"}, "[1]": {"experiment": "Total Dissolved Solids after infusion", "format": "physicochemical", "details": "after infusion of SG Gas into distilled water for approximately 11 minutes (start 0.33 ppm)", "description": "The resulting ionized or polarized water (“SG Gas-infused Water”) clings longer to a magnet when compared to that of regular water. Absorption over time or saturation graphs to monitor changes in the water properties infused with SG Gas including capacitance levels may be prepared. […] Other measurement: Total Dissolved Solids (TDS) dropped from a start of 0.33 ppm in untreated distilled water to a finish of 0.17 ppm after infusion of SG Gas into distilled water for a period of approximately 11 minutes. A Fluke 189True RMS Multimeter was used to measure drop in capacitance."}, "[2]": {"experiment": "Storage of SG Gas in water", "format": "physicochemical", "details": "polarized water with SG Gas treatment", "description": "Storage of SG Gas in Water: The resulting polarized water with SG Gas treatment remains stable and can be stored for 2 years or more. The actual maximum storage time has yet to be observed but in theory, SG Gas should remain permanently stable in the water."}, "SG Gas under pressure": {"experiment": "SG Gas under pressure", "format": "physicochemical", "description": "In an exemplary procedure for compression, SG Gas is discharged from the apparatus into a hose with a compressor attached. We use a Whirlwind Compressor, Model 2200-2 HPE, manufactured by High Pressure Eng. Co. Inc. A canister with pressure gauges is used to fill the chamber with SG Gas, using a hose to transport the SG Gas from the apparatus and compressor into the canister. We use an empty oxygen tank that has been vacuumed to remove any residual oxygen and water. The empty and vacuumed oxygen tank with pressure valve has a manufacturer name of White Martins, ABRE with dimensions of 23″ diameter and 19″ height. SG Gas is placed under pressure in the compression chamber up to and beyond 1,000 psi. for storage of SG Gas.\nAnalytical Testing and Observations of SG Gas Under pressure Maximum Pressure: SG Gas imploded when pressures exceeded 1,600 psi.\nSafe Pressurization: SG Gas remains safe and stable at pressures around 1,000 psi for over 30 days. SG Gas should remain stable under pressure indefinitely, at least for a sufficient period of time to allow said gas to be utilized at time 30-60 days after generation."}}, "data": [{"substance": "hydroxyhydrogen [SG Gas]", "values": [{"measurement": "algae growth in aquarium tank", "setting": "goldfish", "result": "less algae growth"}, {"measurement": "growth of goldfish compared with air-aerated aquarium", "setting": "goldfish", "result": "at least 15%"}, {"measurement": "pH", "setting": "pH test", "result": 7.6}, {"measurement": "Total Dissolved Solids (TDS)", "setting": "[1]", "result": 0.17, "unit": "ppm"}, {"measurement": "storage time over which water remains stable", "setting": "[2]", "result": "≥ 2", "unit": "years"}, {"measurement": "Maximum Pressure: pressure above which SG Gas imploded", "setting": "SG Gas under pressure", "result": "exceeded 1,600 psi"}, {"measurement": "time safe and stable under pressure", "setting": "SG Gas under pressure; pressures around 1,000 psi", "result": "over 30 days"}]}]}
